Source: EP4722228A1, “NEW COMPOUND TARGETING MUSK AND USE THEREOF” (The University of Tokyo, priority 2023, dated 2024)
Bridge positions count the residues as written; N and C are the ends. Square brackets hold non-standard residues; d marks the D form. Peptide text beside a SMILES is read from it. I, II: the chains in the order shown. * marks the point of attachment. Palmitoyl = CCCCCCCCCCCCCCCC(=O)*; PEG3 = NCCOCCOCCOCCC(=O)O; Dap = NC[C@H](N)C(=O)O

Legend:
[1] = target: T1, mouse MuSK (Mus musculus, UniProt Q61006); test: SPR binding activity test to mouse MuSK (Biacore); conditions: Table 5
T1 construct: made in house
T1 sequence (Q61006 22-494 limits assumed): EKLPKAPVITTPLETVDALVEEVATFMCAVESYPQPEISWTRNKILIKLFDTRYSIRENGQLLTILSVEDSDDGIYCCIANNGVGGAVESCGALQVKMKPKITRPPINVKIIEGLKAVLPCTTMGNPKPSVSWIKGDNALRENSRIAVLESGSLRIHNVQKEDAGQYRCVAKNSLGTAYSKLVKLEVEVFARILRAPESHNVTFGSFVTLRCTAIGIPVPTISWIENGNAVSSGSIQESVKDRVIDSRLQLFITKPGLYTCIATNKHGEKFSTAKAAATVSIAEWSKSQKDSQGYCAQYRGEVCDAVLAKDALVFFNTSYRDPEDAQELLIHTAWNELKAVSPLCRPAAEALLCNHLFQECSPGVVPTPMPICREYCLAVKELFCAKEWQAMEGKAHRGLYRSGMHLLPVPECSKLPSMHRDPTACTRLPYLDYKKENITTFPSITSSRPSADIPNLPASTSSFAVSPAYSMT
Description: The strength of binding between MuSK and the cyclic peptides was evaluated by quantitatively measuring the binding kinetics (binding affinity (dissociation constant) KD) of the cyclic peptides to MuSK immobilized on a sensor chip via an Fc tag, using surface plasmon resonance (SPR).
According to the standard immobilization protocol provided by the manufacturer, Fc-tagged human/mouse/rat MuSK was immobilized on a Protein G chip or a Protein A chip (Cytiva). A running buffer for the monomer/dimer peptides contained 0.010 M phosphate, 0.14 M NaCl, 0.0027 M KCl, 0.05% (v/v) Tween 20, and 0.1% (v/v) DMSO. A running buffer for the monomer/dimer U-bodies contained 0.010 M phosphate, 0.14 M NaCl, 0.0027 M KCl, and 0.05% (v/v) Tween 20. A series of concentrations of each monomer peptide, dimer peptide, monomer U-body, and dimer U-body was injected as analytes. A 1:1 binding fitting analysis was applied using Biacore evaluation software, and ka, kd, and KD values were determined.
Fc-tagged human MuSK was prepared according to the procedure described in Example 1(1). In addition, Fc-tagged mouse MuSK was used by expressing a nucleotide sequence encoding the Fc-tagged mouse MuSK extracellular domain (SEQ ID NO: 34). […]
The affinity of the U-bodies and their complexes obtained as described above for MuSK of human, rat, and mouse was evaluated (binding activity test). […]

[2] = test system: rat PTMG model using anti-acetylcholine receptor monoclonal antibody (mAb35); test: Body weight change in rat PTMG model (myasthenia gravis model animals); assay type: in vivo; conditions: 0 to 72 hr
Description: (§1) 5-week-old female rats (n=20, LEW/CrlCrlj, 4 weeks old when carried in, Jackson Laboratory Japan) were divided into four groups (Group A, Group B, Group C, and Group D) using body weight measurement results as indexes. Vehicle was administered to Group A, and the test compound MuSK7-pal dissolved in vehicle was administered intravenously to each of Group B (3 mg/kg), Group C (2 mg/kg), and Group D (1 mg/kg) (Day 0). Two hours after intravenous administration, an anti-nicotinic acetylcholine receptor monoclonal antibody (mAb35, National Hospital Organization Nagasaki Kawatana Medical Center) dissolved in PBS (pH 7.4) as a drug for inducing the pathology of myasthenia gravis was administered intraperitoneally to all animals at 200 µg/rat (Day 0). The vehicle, which was a solvent of the compound, was phosphate-buffered saline (PBS) at pH 7.4 containing 20% hydroxypropyl-β-cyclodextrin and 0.02% polysorbate 80 (the same applies to Example 3(2)).
Next, the body weight of the animals was measured before antibody administration (pre) and at 0, 9, 24, 33, 48, 57, and 72 hours (hr) after antibody administration. The movement, muscle strength, and grip strength of the animals were evaluated by the following tests.
as §1, with “(n=24,” for “(n=20,”, “(0.5” for “(3”, “(0.25” for “(2”, “(0.1” for “(1”, “0).” for “0). The vehicle, which was a solvent of the compound, was phosphate-buffered saline (PBS) at pH 7.4 containing 20% hydroxypropyl-β-cyclodextrin and 0.02% polysorbate 80 (the same applies to Example 3(2)).”
5-week-old female rats (LEW/CrlCrlj, 4 weeks old when carried in, Jackson Laboratory Japan) were divided into three groups (Group A, Group B, and Group C) using body weight measurement results as indexes. The test compound (tetramer of Ub012 (EAAAK)3) dissolved in vehicle was administered intravenously to Group A (5 mg/kg) (n=5), the test compound (tetramer of Ub012(ΔGG) (EAAAK)3) dissolved in vehicle was administered intravenously to Group B (5 mg/kg) (n=5), and vehicle was administered intravenously to Group C (n=5), respectively (Day 0). Two hours after intravenous administration, an anti-nicotinic acetylcholine receptor monoclonal antibody (mAb35, National Hospital Organization Nagasaki Kawatana Medical Center) dissolved in PBS (pH 7.4) as a drug for inducing the pathology of myasthenia gravis was administered intraperitoneally to all animals at 200 µg/rat (Day 0).

With `CCCCCCCCCCCCCCCC(=O)NCCCC[C@H](NC(=O)[C@H](CNC(=O)CCOCCOCCOCCNC(=O)CNC(=O)[C@@H]1CSCC(=O)N[C@H](Cc2ccc(O)cc2)C(=O)N2CCC[C@H]2C(=O)N[C@@H](CO)C(=O)N[C@@H](Cc2ccc(O)cc2)C(=O)N[C@@H](Cc2c[nH]cn2)C(=O)N[C@@H]([C@@H](C)O)C(=O)N[C@@H](CC(N)=O)C(=O)N[C@@H](C(C)C)C(=O)N[C@@H](C(C)C)C(=O)N[C@@H](C)C(=O)N[C@@H](CO)C(=O)N[C@@H](CC(C)C)C(=O)N[C@@H](CCCCN)C(=O)N[C@@H](CCCNC(=N)N)C(=O)N1)NC(=O)CCOCCOCCOCCNC(=O)CNC(=O)[C@@H]1CSCC(=O)N[C@H](Cc2ccc(O)cc2)C(=O)N2CCC[C@H]2C(=O)N[C@@H](CO)C(=O)N[C@@H](Cc2ccc(O)cc2)C(=O)N[C@@H](Cc2c[nH]cn2)C(=O)N[C@@H]([C@@H](C)O)C(=O)N[C@@H](CC(N)=O)C(=O)N[C@@H](C(C)C)C(=O)N[C@@H](C(C)C)C(=O)N[C@@H](C)C(=O)N[C@@H](CO)C(=O)N[C@@H](CC(C)C)C(=O)N[C@@H](CCCCN)C(=O)N[C@@H](CCCNC(=N)N)C(=O)N1)C(N)=O` [MuSK7-pal] (I: {CH2CO}-[dY]PSYHTNVVASLKRCG[PEG3][Dap]K(Palmitoyl)-NH2 / II: {CH2CO}-[dY]PSYHTNVVASLKRCG[PEG3]; amide I:18-II:C; thioether I:N-I:15, II:N-II:15) the Kd [1] was 8.8 nM, the body weight ([2]; 0.1 mg/kg intravenously 2 h before mAb35 (Group D, Example 3(2))) was “milder than that in Group A” and the body weight ([2]; 0.25 mg/kg intravenously 2 h before mAb35 (Group C, Example 3(2))) was “milder than that in Group A”. The body weight ([2]; 0.5 mg/kg intravenously 2 h before mAb35 (Group B, Example 3(2))) was “milder than that in Group A”, the body weight ([2]; 1 mg/kg intravenously 2 h before mAb35 (Group D, Example 3(1))) was “almost no significant decrease in body weight” and the body weight ([2]; 2 mg/kg intravenously 2 h before mAb35 (Group C, Example 3(1))) was “milder than that in Group A”. The body weight ([2]; 3 mg/kg intravenously 2 h before mAb35 (Group B, Example 3(1))) was “milder than that in Group A”.
